These results are taken from article PMC8404221 (European journal of pharmaceutical sciences : official …, 2021).

In data set [1] the test system is MAO-A. The following applies: read-out: MAO-A IC50, published, ref Bálint et al., 2017, Clarke and Ramsay, 2011, Herraiz and Brandt, 2014, Herraiz and Chaparro, 2005, Ionescu et al., 2012, Kim et al., 1997, Rahman and Rahmatullah, 2010, Reniers et al., Rommelspacher et al., 1994, Rüben et al., 2015, Santillo et al., Wurzlbauer et al., 2020; cited from earlier work.

The subject of data set [2] is U87 human glioblastoma cells. Briefly: U87 glioma tumor xenograft in nude NU/J mice. The format is in vivo. The following applies: for Effect on body weight: up to 21 days.
The subject of data set [3] is U87 cells. Briefly: PrestoBlue cell proliferation/viability assay. The format is cell-based, human. Conditions: Homo sapiens, U-87 MG, 72 h, read-out: U87 (cell proliferation) IC50.
The test system of data set [4] is panel of 10 kinases. Description: Kinase selectivity panel. The following applies: 10 μM.
The target of data set [5] is T1, Monoamine oxidase-A (MAO-A) (Homo sapiens, UniProt P21397).
T1 sequence (P21397 1-527): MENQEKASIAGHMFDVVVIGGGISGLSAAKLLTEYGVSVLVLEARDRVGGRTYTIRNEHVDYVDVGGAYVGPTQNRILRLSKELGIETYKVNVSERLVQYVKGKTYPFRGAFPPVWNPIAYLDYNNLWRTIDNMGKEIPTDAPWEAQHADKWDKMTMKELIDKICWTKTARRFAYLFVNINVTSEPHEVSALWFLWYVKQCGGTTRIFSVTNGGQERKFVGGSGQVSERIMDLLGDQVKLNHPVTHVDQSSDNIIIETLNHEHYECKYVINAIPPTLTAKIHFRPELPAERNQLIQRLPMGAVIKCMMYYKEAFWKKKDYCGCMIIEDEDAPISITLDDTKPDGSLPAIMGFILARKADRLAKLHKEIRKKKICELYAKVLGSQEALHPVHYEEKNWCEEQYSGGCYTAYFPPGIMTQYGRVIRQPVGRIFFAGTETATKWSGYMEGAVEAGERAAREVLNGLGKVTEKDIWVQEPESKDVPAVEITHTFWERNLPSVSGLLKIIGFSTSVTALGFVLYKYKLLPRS
Briefly: biochemical. It is filed as biochemical.

Data set [6] concerns the target T2, DYRK1A (Homo sapiens, UniProt Q13627). Description: biochemical. It is filed as biochemical.
Data set [7] has as its system U87 cells. Briefly: High content imaging assay. The format is cell-based, human. Conditions: Homo sapiens, U-87 MG, 72 h, read-out: U87 (nuclear count) IC50.
The target of data set [8] is CLK1 (Homo sapiens, UniProt P49759). Description: InCELL Hunter / PathHunter in-cell target engagement assay. The format is cell-based. Conditions: 0.5, 5 and 50 μM.
CLK1, sequence (P49759 whole entry): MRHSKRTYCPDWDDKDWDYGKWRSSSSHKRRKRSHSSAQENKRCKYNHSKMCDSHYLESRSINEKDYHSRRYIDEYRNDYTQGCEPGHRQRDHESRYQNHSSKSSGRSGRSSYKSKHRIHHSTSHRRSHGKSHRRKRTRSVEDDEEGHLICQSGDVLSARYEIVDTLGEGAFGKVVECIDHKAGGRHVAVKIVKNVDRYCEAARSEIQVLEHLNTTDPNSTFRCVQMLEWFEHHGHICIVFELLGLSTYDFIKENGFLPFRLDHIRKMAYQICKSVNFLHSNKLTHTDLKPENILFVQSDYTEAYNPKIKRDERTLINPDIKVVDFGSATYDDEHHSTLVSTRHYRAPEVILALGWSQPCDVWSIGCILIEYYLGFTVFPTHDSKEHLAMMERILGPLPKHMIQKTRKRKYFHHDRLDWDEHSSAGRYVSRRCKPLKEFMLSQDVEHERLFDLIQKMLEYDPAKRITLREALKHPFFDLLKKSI
For data set [9], the target named is T2, DYRK1A. Briefly: biochemical. Conditions: for IC50: DYRK1A IC50, TR-FRET. It is filed as binding. For orientation: TR-FRET usually uses a lanthanide donor and a delayed reading to cut background.
The test system of data set [10] is H4 cells. Description: High content imaging assay. The format is cell-based, human. The following applies: Homo sapiens, 72 h, read-out: H4 (nuclear count) IC50.
Data set [11] concerns the target T2, DYRK1A. Conditions: read-out: DYRK1A IC50, published values, ref Adayev et al., 2011, Bain et al., 2007, Bálint et al., 2017, Bruel et al., 2014, Foucourt et al., Göckler et al., 2009, Grabher et al., 2012, Kim et al., 2016, Kumar et al., 2018, Liu et al., 2017b, PubChem; cited from earlier work.
In data set [12] the test system is H4 cells. Briefly: PrestoBlue cell proliferation/viability assay. It is filed as cell-based, human. Conditions: Homo sapiens, 72 h, read-out: H4 (cell proliferation) IC50.

What is called inhibition is the relative decrease from the control value, in per cent.

Like-named read-outs stand apart in the source and are kept apart here.

Consider `Cc1[nH]ccc2c1[nH]c1cc(=O)ccc12` [Harmol, harmol], for which the IC50 is 530 nM in data set [1]; 19100 nM in data set [3]; 500 nM in data set [5] (MAO-A IC50, MAO-A Glo); 16 nM in data set [6]; 20800 nM in [7]; 100 nM in data set [9] (10-point 2-fold dose response). Besides, the IC50 was 70 to 100 nM in data set [9] (dose response), 20000 nM in [10], 44 to 298 nM in [11] and 10900 nM in [12]. In addition, the results for the Tumor inhibition rate in data set [2] (15 mg/kg i.p. q.d.) and in data set [2] (60 mg/kg i.p. q.d.) were 28.2% and 38.1%, respectively. The “Effect on body weight” value in data set [2] (15 mg/kg i.p. q.d.) and in data set [2] (60 mg/kg i.p. q.d.) was “did not lead to significant differences in body weight” throughout. For the same compound, the “Survival (Kaplan-Meier) compared to vehicle” value in [2] (60 mg/kg i.p. q.d., not statistically significant) is “trend towards improved survival”. In addition, the “Tremor activity in treated mice” value in data set [2] (anecdotal observation, duration of the study) is listed as “no tremor activity”. Besides, in data set [2] (high dose (60 mg/kg), day 21, not reaching significance), the Tumor growth entry is “modest decrease in tumor growth”. The “Number of the 10 kinases displaying 50% or greater inhibition” value in data set [4] was 7. In addition, the “Fold weaker than harmine for MAO-A” value in data set [5] was 10 fold. The “DYRK1A:MAO-A (IC50 ratio)” value in data set [5] (using TR-FRET DYRK1A IC50 values) was 0.2. In [6] (DYRK1A), the “Fold more potent IC50 with 33P-ATP assay versus TR-FRET” value is 6–7 fold. Further, in [8], the “Effect on β-gal activity (CLK1 target engagement)” value was “increase in β-gal activity”. Moreover, the inhibition at 6.7 µM in [9] (read-out: DYRK1A inhibition in pilot HTS) turned out to be 78%.
